{"source": "patent US11571411B2", "about": "“Use of a bisamide derivative of malonic acid for treating allergic and other diseases in humans and animals” (PHARMENTERPRISES ALLERGY LLC, priority 2018, dated 2023)", "key": {"[1]": {"test_system": "ovalbumin-induced allergic rhinitis model", "assay": "Ovalbumin-induced allergic rhinitis model in guinea pigs, nasal administration of 1% solution", "format": "in vivo, guinea pig", "conditions": "for Number of eosinophils per 1 μL of lavage fluid / Number of nose scratchings / Number of sneezes: 1% solution once intranasally", "experimental": "Int Immunopharmacol. 2013. V.17(1). P.18-25]. Guinea pigs (250-300 g) were immunized with 4× (on days 0, 7, 14 and 21) intraperitoneal administration of a mixture of ovalbumin (100 μg/pig) and aluminum hydroxide (5 mg/pig), diluted and suspended in saline. On day 28 of the study, an ovalbumin solution (60 mg/ml) was injected intranasally to the animals, 20 μl into each nostril. On day 35, after shaving the skin on the back, the animals were injected intradermally with an ovalbumin solution (200 μg/ml, 25 μl). […] On day 42 of the study, an ovalbumin solution (60 mg/ml, 20 μl/nostril) was administered intranasally. A group of sham-immunized animals was formed in order to control the formation of allergic inflammation: the pigs received an aluminum hydroxide solution (5 mg/pig) on days 0, 7, 14 and 21, a saline solution on days 28 and 35, and an ovalbumin solution (60 mg/ml, 20 μl/nostril) on day 42.\nA 1% solution of Compound I was administered to the animals intranasally once 1 hour or 3 hours before intranasal administration of ovalbumin in a volume of 10 μl/nostril. Clinical manifestations of rhinitis were assessed within 2 hours after the last administration of ovalbumin: the numbers of sneezes and nose scratchings were counted. In addition, eosinophils were counted in the nasal lavage fluid."}, "[2]": {"test_system": "histamine-induced nasal congestion model", "assay": "Histamine-induced nasal congestion model in guinea pigs, nasal administration of 1% solution", "format": "in vivo, guinea pig", "conditions": "for Resistance in nasal passages, AUC: 1% solution once intranasally, AUC 0-15 minutes", "experimental": "A histamine-induced nasal congestion model in guinea pigs was performed according to the standard procedure [Slack R J1, Russell L J, Hall D A, Luttmann M A, Ford A J, Saunders K A, Hodgson S T, Connor H E, Browning C, Clark K L. Pharmacological characterization of GSK1004723, a novel, long-acting antagonist at histamine H(1) and H(3) receptors//Br J Pharmacol. 2011. V.164(6). P.1627-1641]. Guinea pigs were anesthetized, the trachea was isolated, and a cannula was inserted through it into the nasopharynx. The cannula was connected to a blood pressure sensor and artificial respirator (Ugo Basile). A 0.2% solution of histamine was inhaled for 3 minutes. The resistance to air flow in the nasal passages was assessed within 15 minutes after the end of inhalation of the histamine solution. Compound I was administered to guinea pigs once intranasally in the form of a 1% solution (10 μl/nostril) 1 hour and 4 hours before the inhalation of histamine."}, "[3]": {"conditions": "1 hour before the last administration of ovalbumin"}, "[4]": {"conditions": "3 hours before the last administration of ovalbumin"}}, "data": [{"smiles": "O=C(CC(=O)NCCc1cnc[nH]1)NCCc1cnc[nH]1", "note": "[Compound I, N,N′-bis(2-(1H-imidazol-5-yl)ethyl)malonamide]", "values": [{"measurement": "duration of the therapeutic effect", "setting": "[1]; 1% solution intranasally, guinea pigs, allergic rhinitis", "value": "at least 3 hours"}, {"measurement": "Number of eosinophils per 1 μL of lavage fluid", "setting": "[1]; [3]", "value": "1416.9 ± 126.8*#& per 1 μL"}, {"measurement": "Number of nose scratchings", "setting": "[1]; [3]", "value": "14.5 ± 4.4&"}, {"measurement": "Number of sneezes", "setting": "[1]; [3]", "value": "3.1 ± 1.2#&"}, {"measurement": "Number of eosinophils per 1 μL of lavage fluid", "setting": "[1]; [4]", "value": "1490.1 ± 241.0*#& per 1 μL"}, {"measurement": "Number of nose scratchings", "setting": "[1]; [4]", "value": "10.7 ± 2.1#&"}, {"measurement": "Number of sneezes", "setting": "[1]; [4]", "value": "3.9 ± 1.5&"}, {"measurement": "duration of the therapeutic effect", "setting": "[2]; 1% solution intranasally, guinea pigs, histamine-induced nasal congestion", "value": "at least 4 hours"}, {"measurement": "Resistance in nasal passages, AUC", "setting": "[2]; 1 hour before histamine inhalation", "value": "317.95 ± 24.49*& see H2O×c"}, {"measurement": "Resistance in nasal passages, AUC", "setting": "[2]; 3 hours before histamine inhalation", "value": "281.75 ± 52.44*& see H2O×c"}]}]}
